Source: US20250073255A1, “USE OF FA-TYPE LIPID COMPOUNDS IN PREPARATION OF NUCLEIC ACID DELIVERY REAGENT AND RELATED PRODUCT” (BEIJING BAISHIKANG PHARMACEUTICAL TECHNOLOGY (BSJPHARMA) …, priority 2021, published 2025)

Test system: C57BL/6 male mice
Test: In vivo delivery study of lipid nucleic acid mixture (oral gavage, RT-qPCR of PGY-sRNA-26 in tissues)
Parameters: species or system mouse
Conditions: for oral delivery of single-stranded sRNA nucleic acids into mouse brain tissue / oral delivery of single-stranded sRNA nucleic acids into mouse femur / oral delivery of single-stranded sRNA nucleic acids into mouse intestinal tissue / oral delivery of single-stranded sRNA nucleic acids into mouse liver tissue / oral delivery of single-stranded sRNA nucleic acids into mouse lung tissue / oral delivery of single-stranded sRNA nucleic acids into mouse blood / oral delivery of single-stranded sRNA nucleic acids into mouse heart tissue / oral delivery of single-stranded sRNA nucleic acids into mouse kidney tissue / oral delivery of single-stranded sRNA nucleic acids into mouse spleen tissue / oral delivery of single-stranded sRNA nucleic acids into mouse stomach tissue / oral delivery of single-stranded sRNA nucleic acids into mouse pancreatic tissue: 100 μg lipid:10 nmol PGY-sRNA-26, sampled after 12 hours; for oral delivery of single-stranded sRNA nucleic acids into mouse intestinal tissue: intestine; for overall delivery efficacy: delivering nucleic acids into each tissue and blood tested: 100 μg lipid:10 nmol PGY-sRNA-26, all tissues and blood tested; for oral delivery of single-stranded sRNA nucleic acids into mouse heart tissue: vs free uptake group; for oral delivery of single-stranded sRNA nucleic acids into mouse pancreatic tissue: pancreas
Method in brief: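 Lipid (100 μg) and 10 nmol 3'-methylated single-stranded PGY-sRNA-26 were heated at 90 °C for 15 min, then given by oral gavage to mice fasted 12 h. Controls were saline and free sRNA. Blood and tissues were taken at 12 h, and levels were measured by stem-loop RT-qPCR relative to U6.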

Compound	oral delivery of single-stranded sRNA nucleic acids into mouse brain tissue	oral delivery of single-stranded sRNA nucleic acids into mouse femur	oral delivery of single-stranded sRNA nucleic acids into mouse intestinal tissue	oral delivery of single-stranded sRNA nucleic acids into mouse liver tissue	oral delivery of single-stranded sRNA nucleic acids into mouse lung tissue	overall delivery efficacy: delivering nucleic acids into each tissue and blood tested	oral delivery of single-stranded sRNA nucleic acids into mouse blood	oral delivery of single-stranded sRNA nucleic acids into mouse heart tissue	oral delivery of single-stranded sRNA nucleic acids into mouse kidney tissue	oral delivery of single-stranded sRNA nucleic acids into mouse spleen tissue	oral delivery of single-stranded sRNA nucleic acids into mouse stomach tissue	oral delivery of single-stranded sRNA nucleic acids into mouse pancreatic tissue
CC/C=C/C=C/C=O [Lipid 618, (2E,4E)-hepta-2,4-dienal]	can effectively orally deliver	can effectively orally deliver	can effectively orally deliver	can effectively orally deliver	can effectively orally deliver							
CCCCCCCCC(C)=O [Lipid 604, decan-2-one]	can effectively orally deliver	can effectively orally deliver	can effectively orally deliver	can effectively orally deliver	can effectively orally deliver	best delivery efficacy	can effectively orally deliver	can effectively orally deliver	can effectively orally deliver	can effectively orally deliver	can effectively orally deliver	
CCCC(=O)CC(=O)N[C@H]1CCOC1=O [Lipid 622, 3-oxo-N-[(3S)-2-oxooxolan-3-yl]hexanamide]	can effectively orally deliver	can effectively orally deliver	can effectively orally deliver	can effectively orally deliver	can effectively orally deliver		can effectively orally deliver			can effectively orally deliver	can effectively orally deliver	
CCCCCC/C=C\CCCCCCCC(=O)OCCCCCCCCCCCCC [Lipid 813, tridecyl (Z)-hexadec-9-enoate]	can effectively orally deliver	can effectively orally deliver	can effectively orally deliver	can effectively orally deliver	can effectively orally deliver		can effectively orally deliver	can effectively orally deliver	can effectively orally deliver	can effectively orally deliver	can effectively orally deliver	can effectively orally deliver
CCCCCCCCCCCC(=O)OC/C=C(\C)CC/C=C(\C)CCC=C(C)C [Lipid 802, [(2E,6E)-3,7,11-trimethyldodeca-2,6,10-trienyl]dodecanoate]	can effectively orally deliver	can effectively orally deliver	can effectively orally deliver	can effectively orally deliver	can effectively orally deliver	best delivery efficacy	can effectively orally deliver	can effectively orally deliver	can effectively orally deliver	can effectively orally deliver	can effectively orally deliver	can effectively orally deliver
CCCC/C=C\CCCCCCCC(=O)OCCCCCCCCCCCCCCCCCCCCCC [Lipid 817, docosyl (Z)-tetradec-9-enoate]	can effectively orally deliver	can effectively orally deliver	can effectively orally deliver	can effectively orally deliver	can effectively orally deliver		can effectively orally deliver	can effectively orally deliver	can effectively orally deliver	can effectively orally deliver	can effectively orally deliver	can effectively orally deliver
CCCCCCCCCCCCCCCCCC(N)=O [Lipid 601, octadecanamide]	can effectively orally deliver	can effectively orally deliver	can effectively orally deliver	can effectively orally deliver	can effectively orally deliver	best delivery efficacy	can effectively orally deliver	can effectively orally deliver	can effectively orally deliver	can effectively orally deliver	can effectively orally deliver	
CCCCC/C=C\C/C=C\CCCCCCCC(=O)OCCCCCCCCCCCCCC [Lipid 811, tetradecyl (9Z,12Z)-octadeca-9,12-dienoate]	can effectively orally deliver	can effectively orally deliver	can effectively orally deliver	can effectively orally deliver	can effectively orally deliver		can effectively orally deliver	can effectively orally deliver	can effectively orally deliver	can effectively orally deliver	can effectively orally deliver	can effectively orally deliver
CCCCCCCCCCCCCCC(=O)O [Lipid 605, pentadecanoic acid]		can effectively orally deliver					can effectively orally deliver				can effectively orally deliver	
O=C(O)CC(=O)C(=O)O [Lipid 623, 2-oxobutanedioic acid]	can effectively orally deliver	can effectively orally deliver	can effectively orally deliver	can effectively orally deliver			can effectively orally deliver	can effectively orally deliver	can effectively orally deliver	can effectively orally deliver	can effectively orally deliver	
CCCCCCCC/C=C/CCCCCCCCO [Lipid 600, (E)-octadec-9-en-1-ol]	can effectively orally deliver	can effectively orally deliver	can effectively orally deliver	can effectively orally deliver	can effectively orally deliver	best delivery efficacy	can effectively orally deliver	can effectively orally deliver	can effectively orally deliver	can effectively orally deliver	can effectively orally deliver	
